Laboratory results reported in PMC3883354 (Bioorganic & medicinal chemistry, 2013).

Target: T1, human GVIA iPLA2 (Homo sapiens, UniProt O60733)
T1 sequence (O60733 1-806): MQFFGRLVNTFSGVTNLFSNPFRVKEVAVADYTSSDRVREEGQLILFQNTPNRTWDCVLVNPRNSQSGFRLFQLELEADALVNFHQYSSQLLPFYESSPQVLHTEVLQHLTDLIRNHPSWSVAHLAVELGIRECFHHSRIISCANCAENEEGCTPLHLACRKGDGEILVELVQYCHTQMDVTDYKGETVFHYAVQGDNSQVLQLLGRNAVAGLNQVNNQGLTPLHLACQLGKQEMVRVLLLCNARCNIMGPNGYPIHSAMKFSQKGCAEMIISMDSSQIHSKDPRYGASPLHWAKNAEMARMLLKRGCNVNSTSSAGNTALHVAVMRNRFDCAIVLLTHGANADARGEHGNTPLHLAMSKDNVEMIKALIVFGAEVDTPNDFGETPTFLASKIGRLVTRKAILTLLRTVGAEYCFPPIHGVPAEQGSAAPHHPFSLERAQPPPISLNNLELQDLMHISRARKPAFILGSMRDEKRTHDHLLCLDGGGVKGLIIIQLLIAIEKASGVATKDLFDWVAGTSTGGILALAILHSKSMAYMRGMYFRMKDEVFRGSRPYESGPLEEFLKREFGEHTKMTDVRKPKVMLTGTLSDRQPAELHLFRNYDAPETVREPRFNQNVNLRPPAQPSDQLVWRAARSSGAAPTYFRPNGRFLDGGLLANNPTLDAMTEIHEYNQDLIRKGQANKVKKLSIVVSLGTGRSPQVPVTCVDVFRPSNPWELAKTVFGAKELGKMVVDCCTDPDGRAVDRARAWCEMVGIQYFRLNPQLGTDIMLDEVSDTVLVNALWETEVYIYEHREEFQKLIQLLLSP
Assay: mixed micelle-based modified Dole assay, GVIA iPLA2 inhibition
Format: biochemical
Settings: for fold weaker towards iPLA2 than FKGK11: compared with FKGK11

Compound	times weaker inhibitor towards GVIA iPLA2 than FKGK18 (compared with FKGK18) [times]	fold weaker towards iPLA2 than FKGK11
O=C(CCCCc1cccc2ccccc12)C(F)(F)F [5a, 1,1,1-Trifluoro-6-(naphthalen-1-yl)hexan-2-one]	9	
O=C(CCCCc1ccc(-c2ccccc2)cc1)C(F)(F)F [5e, 6-(Biphenyl-4-yl)-1,1,1-trifluorohexan-2-one]		13 fold
O=C(CCCCc1ccc(-c2ccccc2)cc1)C(F)(F)C(F)(F)F [6e, 7-(Biphenyl-4-yl)-1,1,1,2,2-pentafluoroheptan-3-one]		ninefold weaker
